PubChem BioAssay (NCI)
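Exposure lasted 48 hours, with cells grown in 96-well plates and compounds tested at five concentrations. TGI marks complete inhibition of growth.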

Assays:
Assay in all cases: inhibition of tumour cell growth, NCI panel, 48 h
SR leukemia = tested on: SR leukemia
OVCAR-8 ovarian = tested on: OVCAR-8 ovarian
UO-31 renal = tested on: UO-31 renal
SF-539 CNS = tested on: SF-539 CNS
SW-620 colon = tested on: SW-620 colon
SNB-19 CNS = tested on: SNB-19 CNS
OVCAR-3 ovarian = tested on: OVCAR-3 ovarian
RPMI-8226 leukemia = tested on: RPMI-8226 leukemia
KM12 colon = tested on: KM12 colon
ACHN renal = tested on: ACHN renal
K-562 leukemia = tested on: K-562 leukemia
SF-268 CNS = tested on: SF-268 CNS
HS 578T breast = tested on: HS 578T breast
A549 NSCLC = tested on: A549 NSCLC
DU-145 prostate = tested on: DU-145 prostate
SK-MEL-2 melanoma = tested on: SK-MEL-2 melanoma
NCI-H226 lung = tested on: NCI-H226 lung
NCI-H522 lung = tested on: NCI-H522 lung
MALME-3M melanoma = tested on: MALME-3M melanoma
HOP-62 NSCLC = tested on: HOP-62 NSCLC
EKVX NSCLC = tested on: EKVX NSCLC
LOX IMVI melanoma = tested on: LOX IMVI melanoma
HT29 colon = tested on: HT29 colon
HCT-15 colon = tested on: HCT-15 colon
OVCAR-4 ovarian = tested on: OVCAR-4 ovarian
A498 renal = tested on: A498 renal
HCT-116 colon = tested on: HCT-116 colon
UACC-62 melanoma = tested on: UACC-62 melanoma
NCI/ADR-RES ovarian = tested on: NCI/ADR-RES ovarian
TK-10 renal = tested on: TK-10 renal
NCI-H460 lung = tested on: NCI-H460 lung
SK-MEL-28 melanoma = tested on: SK-MEL-28 melanoma
IGROV1 ovarian = tested on: IGROV1 ovarian
COLO 205 colon = tested on: COLO 205 colon
HOP-92 NSCLC = tested on: HOP-92 NSCLC
U251 CNS = tested on: U251 CNS
SN12C renal = tested on: SN12C renal
T-47D breast = tested on: T-47D breast
SK-OV-3 ovarian = tested on: SK-OV-3 ovarian
SK-MEL-5 melanoma = tested on: SK-MEL-5 melanoma
HL-60(TB) leukemia = tested on: HL-60(TB) leukemia
MDA-MB-231 breast = tested on: MDA-MB-231 breast
PC-3 prostate = tested on: PC-3 prostate
MOLT-4 leukemia = tested on: MOLT-4 leukemia
CCRF-CEM leukemia = tested on: CCRF-CEM leukemia
786-0 renal = tested on: 786-0 renal
M14 melanoma = tested on: M14 melanoma
HCC-2998 colon = tested on: HCC-2998 colon
NCI-H23 lung = tested on: NCI-H23 lung
MCF7 breast = tested on: MCF7 breast
RXF 393 renal = tested on: RXF 393 renal
MDA-MB-435 = tested on: MDA-MB-435
MDA-N = tested on: MDA-N
CAKI-1 renal = tested on: CAKI-1 renal
OVCAR-5 ovarian = tested on: OVCAR-5 ovarian
SF-295 CNS = tested on: SF-295 CNS
SNB-75 CNS = tested on: SNB-75 CNS
UACC-257 melanoma = tested on: UACC-257 melanoma

## CN1C=COC1N=C1CCCCC1 (configuration not stated)
SR leukemia
  TGI: > 100 µM
OVCAR-8 ovarian
  TGI: > 100 µM
UO-31 renal
  TGI: > 100 µM
SF-539 CNS
  TGI: > 100 µM
SW-620 colon
  TGI: 12.1 µM
SNB-19 CNS
  TGI: 12 µM
OVCAR-3 ovarian
  TGI: > 100 µM
RPMI-8226 leukemia
  TGI: > 100 µM
KM12 colon
  TGI: > 100 µM
ACHN renal
  TGI: > 100 µM
K-562 leukemia
  TGI: > 100 µM
SF-268 CNS
  TGI: > 100 µM
HS 578T breast
  TGI: > 100 µM
A549 NSCLC
  TGI: > 100 µM
DU-145 prostate
  TGI: > 100 µM
SK-MEL-2 melanoma
  TGI: > 100 µM
NCI-H226 lung
  TGI: > 100 µM
NCI-H522 lung
  TGI: > 100 µM
MALME-3M melanoma
  TGI: > 100 µM
HOP-62 NSCLC
  TGI: > 100 µM
EKVX NSCLC
  TGI: > 100 µM
LOX IMVI melanoma
  TGI: > 100 µM
HT29 colon
  TGI: > 100 µM
HCT-15 colon
  TGI: > 100 µM
OVCAR-4 ovarian
  TGI: > 100 µM
A498 renal
  TGI: > 100 µM
HCT-116 colon
  TGI: > 100 µM
UACC-62 melanoma
  TGI: > 100 µM
NCI/ADR-RES ovarian
  TGI: > 100 µM
TK-10 renal
  TGI: > 100 µM
NCI-H460 lung
  TGI: > 100 µM
SK-MEL-28 melanoma
  TGI: > 100 µM
IGROV1 ovarian
  TGI: > 100 µM
COLO 205 colon
  TGI: > 100 µM
HOP-92 NSCLC
  TGI: > 100 µM
U251 CNS
  TGI: > 100 µM
SN12C renal
  TGI: > 100 µM
T-47D breast
  TGI: > 100 µM
SK-OV-3 ovarian
  TGI: > 100 µM
SK-MEL-5 melanoma
  TGI: > 100 µM
HL-60(TB) leukemia
  TGI: > 100 µM
MDA-MB-231 breast
  TGI: > 100 µM
PC-3 prostate
  TGI: > 100 µM
MOLT-4 leukemia
  TGI: > 100 µM
CCRF-CEM leukemia
  TGI: > 100 µM
786-0 renal
  TGI: > 100 µM
M14 melanoma
  TGI: > 100 µM
HCC-2998 colon
  TGI: > 100 µM
NCI-H23 lung
  TGI: > 100 µM
MCF7 breast
  TGI: > 100 µM
RXF 393 renal
  TGI: > 100 µM
MDA-MB-435
  TGI: > 100 µM
MDA-N
  TGI: > 100 µM
CAKI-1 renal
  TGI: 9.16 µM
OVCAR-5 ovarian
  TGI: > 100 µM
SF-295 CNS
  TGI: > 100 µM
SNB-75 CNS
  TGI: > 100 µM

## N#Cc1c(N2CCCC2)nsc1Nc1ccc(F)cc1
SR leukemia
  TGI: > 100 µM
OVCAR-8 ovarian
  TGI: > 100 µM
SF-539 CNS
  TGI: > 100 µM
SW-620 colon
  TGI: > 100 µM
SNB-19 CNS
  TGI: > 100 µM
OVCAR-3 ovarian
  TGI: > 100 µM
RPMI-8226 leukemia
  TGI: > 100 µM
KM12 colon
  TGI: > 100 µM
ACHN renal
  TGI: > 100 µM
K-562 leukemia
  TGI: > 100 µM
SF-268 CNS
  TGI: > 100 µM
HS 578T breast
  TGI: > 100 µM
A549 NSCLC
  TGI: > 100 µM
DU-145 prostate
  TGI: > 100 µM
SK-MEL-2 melanoma
  TGI: > 100 µM
NCI-H226 lung
  TGI: > 100 µM
NCI-H522 lung
  TGI: > 100 µM
MALME-3M melanoma
  TGI: > 100 µM
HOP-62 NSCLC
  TGI: > 100 µM
EKVX NSCLC
  TGI: > 100 µM
LOX IMVI melanoma
  TGI: > 100 µM
HT29 colon
  TGI: > 100 µM
HCT-15 colon
  TGI: > 100 µM
OVCAR-4 ovarian
  TGI: > 100 µM
A498 renal
  TGI: > 100 µM
HCT-116 colon
  TGI: > 100 µM
UACC-62 melanoma
  TGI: > 100 µM
NCI/ADR-RES ovarian
  TGI: > 100 µM
TK-10 renal
  TGI: > 100 µM
NCI-H460 lung
  TGI: > 100 µM
SK-MEL-28 melanoma
  TGI: > 100 µM
IGROV1 ovarian
  TGI: > 100 µM
COLO 205 colon
  TGI: > 100 µM
HOP-92 NSCLC
  TGI: > 100 µM
U251 CNS
  TGI: > 100 µM
SN12C renal
  TGI: > 100 µM
T-47D breast
  TGI: > 100 µM
SK-OV-3 ovarian
  TGI: > 100 µM
SK-MEL-5 melanoma
  TGI: > 100 µM
HL-60(TB) leukemia
  TGI: > 100 µM
MDA-MB-231 breast
  TGI: > 100 µM
UACC-257 melanoma
  TGI: > 100 µM
PC-3 prostate
  TGI: > 100 µM
MOLT-4 leukemia
  TGI: > 100 µM
CCRF-CEM leukemia
  TGI: > 100 µM
786-0 renal
  TGI: > 100 µM
M14 melanoma
  TGI: > 100 µM
HCC-2998 colon
  TGI: > 100 µM
NCI-H23 lung
  TGI: > 100 µM
RXF 393 renal
  TGI: > 100 µM
MDA-MB-435
  TGI: > 100 µM
MDA-N
  TGI: > 100 µM
CAKI-1 renal
  TGI: > 100 µM
OVCAR-5 ovarian
  TGI: > 100 µM
SF-295 CNS
  TGI: > 100 µM
